Reference: US11464749B2, “Bismuth-thiol compositions and methods of use” (Microbion Corporation, priority 2018, dated 2022)
≈ marks a conversion by molar mass, not a printed value. Read-outs that look alike come from different tables or passages of the source.

Experiments:
Escherichia coli = details: E. coli MMX 102 (ATCC 25922); CLSI QC ranges shown in parenthesis; cited from earlier work
Pseudomonas aeruginosa = details: P. aeruginosa MMX 103 (ATCC 27853); CLSI QC ranges shown in parenthesis; cited from earlier work
[1] = system: MABSC / M. abscessus biofilms; test: Activity against CF-isolate biofilms; format: cell-based; details: AMT0130-8 (MABSC CF-isolate)
C. tropicalis = test: Broth microdilution MIC, yeast (Example 11); format: cell-based; details: Candida tropicalis, FLU^R
Candida glabrata = test: Broth microdilution antifungal susceptibility (Example 13); format: cell-based; details: Nakaseomyces glabratus
Candida krusei = test: as above; format: cell-based; details: Pichia kudriavzevii
Candida auris = test: as above; format: cell-based; details: Candidozyma auris
A. niger = test: as above; format: cell-based; details: Aspergillus niger, ATCC29508; read-out: MIC0 48 hr
A. terreus = test: as above; format: cell-based; details: Aspergillus terreus, A. terreus MMX 8229
A. fumigatus = test: as above; format: cell-based; details: for MIC: Aspergillus fumigatus
A. flavus = test: as above; format: cell-based; details: Aspergillus flavus
E. faecium = test: Broth microdilution MIC (Example 11); details: Enterococcus faecium, VRE, VRE vanA Lev^R Cip^R Ery^R
Achromobacter spp. = test: MIC against CF bacterial strains (Example 5)
P. aeruginosa = test: Broth microdilution MIC (Example 10); details: initial MIC testing

For `C[C@@H](O)[C@H]1C(=O)N2C(C(=O)O)=C(S[C@@H]3CN[C@H](C(=O)N(C)C)C3)[C@H](C)[C@H]12` [Meropenem, reference compound], the “CLSI QC range of MIC” value (Escherichia coli) is listed as “(0.008-0.06) μg/mL” and the “CLSI QC range of MIC” value (Pseudomonas aeruginosa) is listed as “(0.25-1) μg/mL”.

With `CC(S)C(C)S.[Bi]` (stereo not shown) [BisBDT, bismuth-2,3-butanedithiol] the “reduction in biofilm cell viability” value [1] was “only very modest reductions”, the MIC (C. tropicalis; 24 h, C. tropicalis MMX 7247) was 4 µg/mL and the MIC (C. tropicalis; 24 h, C. tropicalis MMX 7248) was 4 µg/mL. It also gave an MIC (C. tropicalis; 24 h, C. tropicalis MMX 7360) of 2 µg/mL, an MIC (C. tropicalis; 48 h, C. tropicalis MMX 7247) of 4 µg/mL and an MIC (C. tropicalis; 48 h, C. tropicalis MMX 7248) of 8 µg/mL. It also gave an MIC (C. tropicalis; 48 h, C. tropicalis MMX 7360) of 2 µg/mL, an MIC (Candida glabrata; ATCC90030, read-out: MIC0 (complete inhibition), isolate ATCC 90030 (Susceptible)) of 1 µg/mL and an MIC (Candida glabrata; ATCC90030, read-out: MIC2 (50% inhibition), isolate ATCC 90030 (Susceptible)) of 0.5 µg/mL. It also gave an MIC (Candida glabrata; read-out: MIC0 (complete inhibition), isolate ATCC MYA-2950 (Susceptible)) of 1 µg/mL, an MIC (Candida glabrata; read-out: MIC0 (complete inhibition), isolate MMX 7087 (Susceptible)) of 1 µg/mL and an MIC (Candida glabrata; read-out: MIC0 (complete inhibition), isolate MMX 7093 (FLU-R)) of 2 µg/mL. For the same compound, the MIC (Candida glabrata; read-out: MIC0 (complete inhibition), isolate MMX 7101 (FLU-R)) was 1 µg/mL, the MIC (Candida glabrata; read-out: MIC0 (complete inhibition), isolate MMX 7103 (CASP-R, MICA-R)) was 1 µg/mL and the MIC (Candida glabrata; read-out: MIC0 (complete inhibition), isolate MMX 7111 (Susceptible)) was 1 µg/mL. For the same compound, the MIC (Candida glabrata; read-out: MIC0 (complete inhibition), isolate MMX 7285 (CASP-R, MICA-R)) was 0.5 µg/mL, the MIC (Candida glabrata; read-out: MIC0 (complete inhibition), isolate MMX 7307 (CASP-R, MICA-R, FLU-R)) was 1 µg/mL and the MIC (Candida glabrata; read-out: MIC0 (complete inhibition), isolate MMX 7549 (Susceptible)) was 1 µg/mL. For the same compound, the MIC (Candida glabrata; read-out: MIC2 (50% inhibition), isolate ATCC MYA-2950 (Susceptible)) was 0.5 µg/mL, the MIC (Candida glabrata; read-out: MIC2 (50% inhibition), isolate MMX 7087 (Susceptible)) was 0.5 µg/mL and the MIC (Candida glabrata; read-out: MIC2 (50% inhibition), isolate MMX 7093 (FLU-R)) was 1 µg/mL. The MIC (Candida glabrata; read-out: MIC2 (50% inhibition), isolate MMX 7101 (FLU-R)) was 0.5 µg/mL, the MIC (Candida glabrata; read-out: MIC2 (50% inhibition), isolate MMX 7103 (CASP-R, MICA-R)) was 0.5 µg/mL and the MIC (Candida glabrata; read-out: MIC2 (50% inhibition), isolate MMX 7111 (Susceptible)) was 0.5 µg/mL. The MIC (Candida glabrata; read-out: MIC2 (50% inhibition), isolate MMX 7285 (CASP-R, MICA-R)) was 0.25 µg/mL, the MIC (Candida glabrata; read-out: MIC2 (50% inhibition), isolate MMX 7307 (CASP-R, MICA-R, FLU-R)) was 0.5 µg/mL and the MIC (Candida glabrata; read-out: MIC2 (50% inhibition), isolate MMX 7549 (Susceptible)) was 0.5 µg/mL. The MIC (Candida krusei; ATCC6258, read-out: MIC0 (complete inhibition)) was 1 µg/mL, the MIC (Candida krusei; ATCC14243, read-out: MIC0 (complete inhibition)) was 1 µg/mL and the MIC (Candida krusei; ATCC96685, read-out: MIC2 (50% inhibition)) was 0.25 µg/mL. For the same compound, the MIC (Candida krusei; read-out: MIC2 (50% inhibition)) was 1 µg/mL, the MIC (Candida krusei; read-out: MIC0 (complete inhibition)) was 2 µg/mL and the MIC (Candida auris; read-out: MIC0 (complete inhibition), isolate MMX 9862 (Susceptible)) was 1 µg/mL. The MIC (Candida auris; read-out: MIC0 (complete inhibition), isolate MMX 9863 (FLU-R, VORI-R)) was 2 µg/mL, the MIC (Candida auris; read-out: MIC0 (complete inhibition), isolate MMX 9864 (FLU-R, VORI-R)) was 1 µg/mL and the MIC (Candida auris; read-out: MIC0 (complete inhibition), isolate MMX 9865 (FLU-R, VORI-R)) was 2 µg/mL. The MIC (Candida auris; read-out: MIC0 (complete inhibition), isolate MMX 9866 (FLU-R, VORI-R)) was 2 µg/mL, the MIC (Candida auris; read-out: MIC0 (complete inhibition), isolate MMX 9867 (FLU-R, VORI-R)) was 2 µg/mL and the MIC (Candida auris; read-out: MIC0 (complete inhibition), isolate MMX 9868 (FLU-R, VORI-R)) was 4 µg/mL. The MIC (Candida auris; read-out: MIC0 (complete inhibition), isolate MMX 9869 (FLU-R, VORI-R)) was 4 µg/mL, the MIC (Candida auris; read-out: MIC0 (complete inhibition), isolate MMX 9870 (FLU-R, VORI-R)) was 2 µg/mL and the MIC (Candida auris; read-out: MIC0 (complete inhibition), isolate MMX 9871 (Susceptible)) was 2 µg/mL. The MIC (Candida auris; read-out: MIC2 (50% inhibition), isolate MMX 9862 (Susceptible)) was 0.5 µg/mL, the MIC (Candida auris; read-out: MIC2 (50% inhibition), isolate MMX 9863 (FLU-R, VORI-R)) was 1 µg/mL and the MIC (Candida auris; read-out: MIC2 (50% inhibition), isolate MMX 9864 (FLU-R, VORI-R), result after 48 hr incubation (insufficient growth at 24 hr)) was 1 µg/mL. For the same compound, the MIC (Candida auris; read-out: MIC2 (50% inhibition), isolate MMX 9865 (FLU-R, VORI-R)) was 1 µg/mL, the MIC (Candida auris; read-out: MIC2 (50% inhibition), isolate MMX 9866 (FLU-R, VORI-R)) was 1 µg/mL and the MIC (Candida auris; read-out: MIC2 (50% inhibition), isolate MMX 9867 (FLU-R, VORI-R)) was 1 µg/mL. It also gave an MIC (Candida auris; read-out: MIC2 (50% inhibition), isolate MMX 9868 (FLU-R, VORI-R)) of 1 µg/mL, an MIC (Candida auris; read-out: MIC2 (50% inhibition), isolate MMX 9869 (FLU-R, VORI-R)) of 1 µg/mL and an MIC (Candida auris; read-out: MIC2 (50% inhibition), isolate MMX 9870 (FLU-R, VORI-R)) of 1 µg/mL. The MIC (Candida auris; read-out: MIC2 (50% inhibition), isolate MMX 9871 (Susceptible)) was 1 µg/mL, the MIC (A. niger) was 2 µg/mL and the MIC (A. terreus; 24 hr, read-out: MIC0 24 hr) was 0.25 µg/mL. For the same compound, the MIC (A. terreus; 48 hr, read-out: MIC0 48 hr) was 1 µg/mL, the “MIC0 24 hr” value (A. fumigatus; A. fumigatus ATCC MYA-3626, 24 hr) was 2 µg/mL and the “MIC0 24 hr” value (A. fumigatus; A. fumigatus MMX 5934, 24 hr) was 2 µg/mL. For the same compound, the “MEC at 48 hr (MIC0 not observed)” value (A. fumigatus; A. fumigatus MMX 5934, 48 hr) was 4 µg/mL, the MIC (A. fumigatus; ATCC204305, A. fumigatus ATCC 204305, 24 hr, read-out: MIC0 24 hr) was 8 µg/mL and the MIC (A. fumigatus; ATCC204305, A. fumigatus ATCC 204305, 48 hr, read-out: MEC at 48 hr (MIC0 not observed)) was 4 µg/mL. For the same compound, the MIC (A. fumigatus; A. fumigatus ATCC MYA-3626, 48 hr, read-out: MIC0 48 hr) was 4 µg/mL, the MIC (A. fumigatus; A. fumigatus MMX 5939, 24 hr, read-out: MIC0 24 hr) was 2 µg/mL and the MIC (A. fumigatus; A. fumigatus MMX 5939, 48 hr, read-out: MEC at 48 hr (MIC0 not observed)) was 4 µg/mL. It also gave an MIC (A. fumigatus; read-out: MIC0 48 hr) of 1 µg/mL, an MIC (A. flavus; ATCC22546, A. flavus ATCC 22546, 24 hr, read-out: MIC0 24 hr) of 1 µg/mL and an MIC (A. flavus; ATCC22546, A. flavus ATCC 22546, 48 hr, read-out: MIC0 48 hr) of 2 µg/mL. The MIC (A. flavus; ATCC204304, A. flavus ATCC 204304, 24 hr, read-out: MIC0 24 hr) was 4 µg/mL, the MIC (A. flavus; ATCC204304, A. flavus ATCC 204304, 48 hr, read-out: MEC at 48 hr (MIC0 not observed)) was 4 µg/mL and the MIC (A. flavus; A. flavus MMX 7935, 24 hr, read-out: MIC0 24 hr) was 8 µg/mL. The MIC (A. flavus; A. flavus MMX 7935, 48 hr, read-out: MIC0 48 hr) was 8 µg/mL, the MIC (E. faecium; E. faecium MMX 485) was 0.5 µg/mL and the MIC (E. faecium; E. faecium MMX 752) was 1 µg/mL. For the same compound, the MIC (Achromobacter spp.) was 0.5 µg/mL and the MIC (Achromobacter spp.; Achromobacter) was 1 µg/mL.

With `C[C@@H](O)[C@H]1C(=O)N2C(C(=O)O)=C(S[C@@H]3CN[C@H](C(=O)N(C)C)C3)[C@H](C)[C@H]12` [MEM] the MIC (P. aeruginosa; P. aeruginosa isolate 103) was 1 µg/mL (≈ 2.61 µM), the MIC (P. aeruginosa; P. aeruginosa isolate 1497 (TOB-R, AMK-R, CIP-I, AZT-R, COL-R)) was 0.06 µg/mL (≈ 0.156 µM) and the MIC (P. aeruginosa; P. aeruginosa isolate 1530 (TOB-R, AMK-R, CIP-R)) was 0.5 µg/mL (≈ 1.3 µM). It also gave an MIC (P. aeruginosa; P. aeruginosa isolate 1553 (TOB-R, AMK-R, CIP-R)) of 0.5 µg/mL (≈ 1.3 µM), an MIC (P. aeruginosa; P. aeruginosa isolate 6322 (MEM-R, TOB-R, AMK-R, CIP-R, AZT-R)) of 16 µg/mL (≈ 41.7 µM) and an MIC (P. aeruginosa; P. aeruginosa isolate 6977 (MEM-I, TOB-R, CIP-R, AZT-I)) of 4 µg/mL (≈ 10.4 µM). For the same compound, the MIC (P. aeruginosa; P. aeruginosa isolate 7745 (MEM-R, CIP-R, AZT-R)) was 16 µg/mL (≈ 41.7 µM), the MIC (P. aeruginosa; P. aeruginosa isolate 7754 (MEM-R, TOB-R, CIP-R, AZT-I)) was 32 µg/mL (≈ 83.4 µM) and the MIC (P. aeruginosa; P. aeruginosa isolate 7762 (MEM-I, CIP-I)) was 4 µg/mL (≈ 10.4 µM). The MIC (P. aeruginosa; P. aeruginosa isolate 7871 (MEM-R, AZT-I)) was 8 µg/mL (≈ 20.9 µM), the MIC (P. aeruginosa; P. aeruginosa isolate 7874) was 1 µg/mL (≈ 2.61 µM) and the MIC (P. aeruginosa; P. aeruginosa isolate 7886 (MEM-R, CIP-R, AZT-R)) was 32 µg/mL (≈ 83.4 µM). It also gave an MIC (P. aeruginosa; P. aeruginosa isolate 8797 (MEM-R, TOB-R, AMK-R, CIP-R, AZT-R, COL-R)) of 32 µg/mL (≈ 83.4 µM), an MIC (P. aeruginosa; P. aeruginosa isolate 8798 (MEM-R, TOB-R, AMK-R, CIP-R, AZT-R, COL-R)) of 64 µg/mL (≈ 167 µM) and an MIC (P. aeruginosa; P. aeruginosa isolate 9108 (CIP-R, AZT-I)) of 0.5 µg/mL (≈ 1.3 µM).
